From ChEMBL document CHEMBL4507295 (2021)

How the values were obtained:
[1] = target: AP2-associated protein kinase 1 (Homo sapiens) (UniProt Q2M2I8); details: Compound concentration 1000.0 nM
[2] = target: Tyrosine-protein kinase ABL1 (Homo sapiens) (UniProt P00519); details: Compound concentration 1000.0 nM
[3] = target: Atypical kinase COQ8A, mitochondrial (Homo sapiens) (UniProt Q8NI60); details: Compound concentration 1000.0 nM
[4] = target: Ankyrin repeat and protein kinase domain-containing protein 1 (Homo sapiens) (UniProt Q8NFD2); details: Compound concentration 1000.0 nM
[5] = target: Aurora kinase A (Homo sapiens) (UniProt O14965); details: Compound concentration 1000.0 nM
[6] = target: Serine/threonine-protein kinase BRSK2 (Homo sapiens) (UniProt Q8IWQ3); details: Compound concentration 1000.0 nM
Serine/threonine-protein kinase BRSK2 (Homo sapiens), sequence (Q8IWQ3 whole entry): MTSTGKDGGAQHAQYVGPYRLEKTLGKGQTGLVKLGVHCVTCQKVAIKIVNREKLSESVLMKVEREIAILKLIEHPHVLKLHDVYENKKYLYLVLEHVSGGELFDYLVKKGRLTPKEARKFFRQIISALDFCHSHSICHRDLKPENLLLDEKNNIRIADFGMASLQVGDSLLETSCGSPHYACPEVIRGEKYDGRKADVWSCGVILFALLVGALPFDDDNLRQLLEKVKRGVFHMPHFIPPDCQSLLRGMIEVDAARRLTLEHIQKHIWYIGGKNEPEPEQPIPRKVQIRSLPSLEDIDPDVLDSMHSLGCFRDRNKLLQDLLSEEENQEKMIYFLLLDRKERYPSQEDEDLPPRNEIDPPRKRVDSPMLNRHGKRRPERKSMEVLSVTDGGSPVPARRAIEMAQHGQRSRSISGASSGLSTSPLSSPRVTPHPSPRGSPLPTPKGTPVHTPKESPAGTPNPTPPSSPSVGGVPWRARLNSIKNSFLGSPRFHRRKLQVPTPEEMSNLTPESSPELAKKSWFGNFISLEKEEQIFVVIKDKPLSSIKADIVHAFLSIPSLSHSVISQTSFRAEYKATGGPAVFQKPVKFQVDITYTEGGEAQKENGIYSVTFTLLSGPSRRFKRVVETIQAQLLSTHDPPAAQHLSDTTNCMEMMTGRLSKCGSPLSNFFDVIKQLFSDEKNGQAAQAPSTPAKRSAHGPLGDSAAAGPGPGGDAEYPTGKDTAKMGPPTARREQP

[7] = target: Cyclin-dependent kinase 3 (Homo sapiens) (UniProt Q00526); details: Compound concentration 1000.0 nM
[8] = target: Cyclin-dependent kinase-like 3 (Homo sapiens) (UniProt Q8IVW4); details: Compound concentration 1000.0 nM
[9] = target: Cyclin-dependent kinase-like 5 (Homo sapiens) (UniProt O76039); details: Compound concentration 1000.0 nM
[10] = target: Dual specificity tyrosine-phosphorylation-regulated kinase 1B (Homo sapiens) (UniProt Q9Y463); details: Compound concentration 1000.0 nM
Dual specificity tyrosine-phosphorylation-regulated kinase 1B (Homo sapiens), sequence (Q9Y463 whole entry, looked up): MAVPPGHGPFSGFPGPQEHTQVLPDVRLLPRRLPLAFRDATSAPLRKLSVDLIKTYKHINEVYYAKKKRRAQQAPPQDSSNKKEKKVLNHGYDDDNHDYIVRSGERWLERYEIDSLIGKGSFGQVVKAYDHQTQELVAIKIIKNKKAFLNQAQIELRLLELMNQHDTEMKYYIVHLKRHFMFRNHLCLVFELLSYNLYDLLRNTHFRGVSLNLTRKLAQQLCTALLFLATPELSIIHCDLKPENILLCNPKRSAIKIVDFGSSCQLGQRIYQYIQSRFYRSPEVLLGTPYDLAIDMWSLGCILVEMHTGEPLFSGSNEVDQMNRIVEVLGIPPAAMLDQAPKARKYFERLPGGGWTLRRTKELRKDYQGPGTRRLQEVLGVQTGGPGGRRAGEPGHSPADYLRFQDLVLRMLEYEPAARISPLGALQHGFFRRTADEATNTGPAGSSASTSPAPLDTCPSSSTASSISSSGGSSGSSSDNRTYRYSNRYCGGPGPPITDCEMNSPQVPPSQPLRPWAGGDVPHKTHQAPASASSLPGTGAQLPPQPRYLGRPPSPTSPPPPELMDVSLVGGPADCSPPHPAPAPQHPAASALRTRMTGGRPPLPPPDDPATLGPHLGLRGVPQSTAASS

[11] = tested on: Epidermal growth factor receptor (Homo sapiens), P00533 [UNDEFINED MUTATION]; details: Compound concentration 1000.0 nM
[12] = target: Ephrin type-A receptor 3 (Homo sapiens) (UniProt P29320); details: Compound concentration 1000.0 nM
[13] = target: Tyrosine-protein kinase Fer (Homo sapiens) (UniProt P16591); details: Compound concentration 1000.0 nM
[14] = target: Vascular endothelial growth factor receptor 3 (Homo sapiens) (UniProt P35916); details: Compound concentration 1000.0 nM
[15] = target: Tyrosine-protein kinase FRK (Homo sapiens) (UniProt P42685); details: Compound concentration 1000.0 nM
[16] = target: Rhodopsin kinase GRK1 (Homo sapiens) (UniProt Q15835); details: Compound concentration 1000.0 nM
[17] = target: Homeodomain-interacting protein kinase 2 (Homo sapiens) (UniProt Q9H2X6); details: Compound concentration 1000.0 nM
Homeodomain-interacting protein kinase 2 (Homo sapiens), sequence (Q9H2X6 whole entry, looked up): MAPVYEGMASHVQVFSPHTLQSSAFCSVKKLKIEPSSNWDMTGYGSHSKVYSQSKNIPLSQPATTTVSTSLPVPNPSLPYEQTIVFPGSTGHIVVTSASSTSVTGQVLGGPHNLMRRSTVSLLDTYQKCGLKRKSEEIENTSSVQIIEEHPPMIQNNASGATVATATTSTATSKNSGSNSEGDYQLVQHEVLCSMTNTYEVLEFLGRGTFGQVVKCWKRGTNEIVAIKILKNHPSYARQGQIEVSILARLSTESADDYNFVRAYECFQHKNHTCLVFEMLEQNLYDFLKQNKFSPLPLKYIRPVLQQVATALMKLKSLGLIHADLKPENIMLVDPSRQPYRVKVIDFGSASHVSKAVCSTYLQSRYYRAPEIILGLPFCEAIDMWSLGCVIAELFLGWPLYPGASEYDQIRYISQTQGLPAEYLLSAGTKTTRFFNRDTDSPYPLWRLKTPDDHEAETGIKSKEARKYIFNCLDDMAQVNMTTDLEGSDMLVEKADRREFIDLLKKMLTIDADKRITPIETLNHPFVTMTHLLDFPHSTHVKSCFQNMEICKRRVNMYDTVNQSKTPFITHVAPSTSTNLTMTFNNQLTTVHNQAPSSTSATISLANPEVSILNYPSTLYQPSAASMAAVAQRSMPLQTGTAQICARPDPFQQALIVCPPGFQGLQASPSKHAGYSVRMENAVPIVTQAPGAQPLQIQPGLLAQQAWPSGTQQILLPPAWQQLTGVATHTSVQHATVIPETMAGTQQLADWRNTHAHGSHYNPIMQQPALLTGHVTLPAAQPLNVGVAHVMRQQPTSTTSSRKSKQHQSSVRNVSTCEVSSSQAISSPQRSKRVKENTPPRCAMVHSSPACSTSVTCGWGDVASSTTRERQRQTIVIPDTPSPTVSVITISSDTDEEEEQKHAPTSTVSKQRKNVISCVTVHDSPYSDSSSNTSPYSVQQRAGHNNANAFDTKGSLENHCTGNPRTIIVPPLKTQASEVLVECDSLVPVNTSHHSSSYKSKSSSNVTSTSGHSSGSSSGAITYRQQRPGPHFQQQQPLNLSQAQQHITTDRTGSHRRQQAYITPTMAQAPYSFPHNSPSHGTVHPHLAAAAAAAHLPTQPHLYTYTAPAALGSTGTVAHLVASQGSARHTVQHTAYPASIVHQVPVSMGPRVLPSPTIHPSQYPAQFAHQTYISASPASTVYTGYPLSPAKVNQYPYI

[18] = tested on: Mast/stem cell growth factor receptor Kit (Homo sapiens), P10721 [V559D,T670I]; details: Compound concentration 1000.0 nM
[19] = target: Leucine-rich repeat serine/threonine-protein kinase 2 (Homo sapiens) (UniProt Q5S007); details: Compound concentration 1000.0 nM
[20] = target: Mitogen-activated protein kinase kinase kinase kinase 3 (Homo sapiens) (UniProt Q8IVH8); details: Compound concentration 1000.0 nM
[21] = target: Maternal embryonic leucine zipper kinase (Homo sapiens) (UniProt Q14680); details: Compound concentration 1000.0 nM
[22] = target: Myosin light chain kinase 2, skeletal/cardiac muscle (Homo sapiens) (UniProt Q9H1R3); details: Compound concentration 1000.0 nM
[23] = target: Serine/threonine-protein kinase Nek7 (Homo sapiens) (UniProt Q8TDX7); details: Compound concentration 1000.0 nM
[24] = target: Serine/threonine-protein kinase PAK 2 (Homo sapiens) (UniProt Q13177); details: Compound concentration 1000.0 nM
Serine/threonine-protein kinase PAK 2 (Homo sapiens), sequence (Q13177 whole entry): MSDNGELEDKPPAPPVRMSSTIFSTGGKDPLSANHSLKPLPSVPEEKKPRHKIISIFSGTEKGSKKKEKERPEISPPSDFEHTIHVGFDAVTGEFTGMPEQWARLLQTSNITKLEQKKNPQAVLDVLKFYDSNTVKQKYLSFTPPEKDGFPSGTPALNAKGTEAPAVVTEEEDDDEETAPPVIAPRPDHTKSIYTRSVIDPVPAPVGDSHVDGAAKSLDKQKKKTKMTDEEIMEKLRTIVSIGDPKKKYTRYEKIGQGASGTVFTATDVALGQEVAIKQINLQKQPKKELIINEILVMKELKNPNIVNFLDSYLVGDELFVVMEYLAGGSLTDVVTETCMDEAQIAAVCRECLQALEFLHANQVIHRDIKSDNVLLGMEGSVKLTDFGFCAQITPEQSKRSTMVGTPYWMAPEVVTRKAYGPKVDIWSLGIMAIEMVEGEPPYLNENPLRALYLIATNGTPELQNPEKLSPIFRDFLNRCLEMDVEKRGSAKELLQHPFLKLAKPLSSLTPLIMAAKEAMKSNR

[25] = target: Serine/threonine-protein kinase PAK 4 (Homo sapiens) (UniProt O96013); details: Compound concentration 1000.0 nM
[26] = target: Serine/threonine-protein kinase PAK 6 (Homo sapiens) (UniProt Q9NQU5); details: Compound concentration 1000.0 nM
[27] = target: Cyclin-dependent kinase 17 (Homo sapiens) (UniProt Q00537); details: Compound concentration 1000.0 nM
Cyclin-dependent kinase 17 (Homo sapiens), sequence (Q00537 whole entry, looked up, canonical isoform): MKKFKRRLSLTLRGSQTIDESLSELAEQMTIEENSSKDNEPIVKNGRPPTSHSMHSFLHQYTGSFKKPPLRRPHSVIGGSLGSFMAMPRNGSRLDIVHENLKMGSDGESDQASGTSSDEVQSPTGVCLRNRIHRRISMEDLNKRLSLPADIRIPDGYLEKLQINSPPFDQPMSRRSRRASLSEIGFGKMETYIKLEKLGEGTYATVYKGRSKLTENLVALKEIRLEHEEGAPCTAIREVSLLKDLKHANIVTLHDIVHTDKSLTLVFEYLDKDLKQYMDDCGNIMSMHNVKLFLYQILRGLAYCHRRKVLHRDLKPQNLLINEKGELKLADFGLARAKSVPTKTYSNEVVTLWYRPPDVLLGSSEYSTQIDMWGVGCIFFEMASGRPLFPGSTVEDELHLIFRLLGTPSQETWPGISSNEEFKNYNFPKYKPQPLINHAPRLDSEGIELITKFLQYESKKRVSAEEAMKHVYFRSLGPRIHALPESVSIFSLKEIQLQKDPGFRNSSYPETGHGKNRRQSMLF

[28] = tested on: Phosphatidylinositol 4,5-bisphosphate 3-kinase catalytic subunit alpha isoform (Homo sapiens), P42336 [C420R]; details: Compound concentration 1000.0 nM
[29] = target: Serine/threonine-protein kinase N1 (Homo sapiens) (UniProt Q16512); details: Compound concentration 1000.0 nM
[30] = target: Protein-tyrosine kinase 2-beta (Homo sapiens) (UniProt Q14289); details: Compound concentration 1000.0 nM
[31] = target: Serine/threonine-protein kinase RIO3 (Homo sapiens) (UniProt O14730); details: Compound concentration 1000.0 nM
[32] = target: Receptor-interacting serine/threonine-protein kinase 4 (Homo sapiens) (UniProt P57078); details: Compound concentration 1000.0 nM
[33] = target: Ribosomal protein S6 kinase alpha-5 (Homo sapiens) (UniProt O75582); details: Compound concentration 1000.0 nM
[34] = target: Ribosomal protein S6 kinase beta-1 (Homo sapiens) (UniProt P23443); details: Compound concentration 1000.0 nM
Ribosomal protein S6 kinase beta-1 (Homo sapiens), sequence (P23443 whole entry, looked up): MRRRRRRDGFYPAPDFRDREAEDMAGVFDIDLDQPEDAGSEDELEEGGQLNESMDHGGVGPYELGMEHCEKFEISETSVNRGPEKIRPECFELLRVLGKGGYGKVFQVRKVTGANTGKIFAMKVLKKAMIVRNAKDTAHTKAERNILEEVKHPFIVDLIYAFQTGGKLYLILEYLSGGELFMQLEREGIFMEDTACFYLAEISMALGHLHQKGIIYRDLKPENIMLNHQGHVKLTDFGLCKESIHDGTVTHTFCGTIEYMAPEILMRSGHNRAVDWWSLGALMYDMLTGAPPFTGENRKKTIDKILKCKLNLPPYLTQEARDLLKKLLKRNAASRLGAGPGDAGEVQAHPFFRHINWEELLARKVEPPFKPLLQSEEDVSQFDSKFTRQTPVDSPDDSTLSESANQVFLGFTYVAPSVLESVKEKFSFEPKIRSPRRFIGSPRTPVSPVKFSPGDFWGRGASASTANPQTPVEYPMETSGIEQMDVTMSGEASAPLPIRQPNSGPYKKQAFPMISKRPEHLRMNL

[35] = target: NUAK family SNF1-like kinase 2 (Homo sapiens) (UniProt Q9H093); details: Compound concentration 1000.0 nM
[36] = target: Tyrosine-protein kinase receptor TYRO3 (Homo sapiens) (UniProt Q06418); details: Compound concentration 1000.0 nM
Tyrosine-protein kinase receptor TYRO3 (Homo sapiens), sequence (Q06418 whole entry): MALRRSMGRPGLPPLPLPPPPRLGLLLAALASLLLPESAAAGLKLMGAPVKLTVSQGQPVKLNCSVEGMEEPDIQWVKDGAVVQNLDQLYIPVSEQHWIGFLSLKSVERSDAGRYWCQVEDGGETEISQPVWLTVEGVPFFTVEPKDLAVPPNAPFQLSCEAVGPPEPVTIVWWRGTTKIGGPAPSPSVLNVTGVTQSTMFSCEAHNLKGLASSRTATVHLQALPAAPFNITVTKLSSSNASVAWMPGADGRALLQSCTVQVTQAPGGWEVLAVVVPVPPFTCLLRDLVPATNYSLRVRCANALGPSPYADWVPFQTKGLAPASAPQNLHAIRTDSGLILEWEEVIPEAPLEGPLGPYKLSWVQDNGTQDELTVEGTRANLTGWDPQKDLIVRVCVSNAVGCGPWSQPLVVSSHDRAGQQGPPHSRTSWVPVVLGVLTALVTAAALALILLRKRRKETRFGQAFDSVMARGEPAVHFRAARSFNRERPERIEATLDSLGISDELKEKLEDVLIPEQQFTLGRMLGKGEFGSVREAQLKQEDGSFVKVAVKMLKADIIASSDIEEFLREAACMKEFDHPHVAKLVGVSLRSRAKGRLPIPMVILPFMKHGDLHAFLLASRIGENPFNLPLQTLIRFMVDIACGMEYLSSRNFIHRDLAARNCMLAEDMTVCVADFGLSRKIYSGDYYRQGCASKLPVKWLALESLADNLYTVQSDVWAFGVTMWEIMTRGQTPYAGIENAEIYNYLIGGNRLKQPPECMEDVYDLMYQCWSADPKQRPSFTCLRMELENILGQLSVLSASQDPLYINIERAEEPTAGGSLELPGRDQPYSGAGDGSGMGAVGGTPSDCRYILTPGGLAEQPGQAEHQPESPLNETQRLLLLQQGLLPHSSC

[37] = target: Tyrosine-protein kinase Yes (Homo sapiens) (UniProt P07947); details: Compound concentration 1000.0 nM
[38] = target: T1, 5-hydroxytryptamine receptor 1A (Homo sapiens) (UniProt P08908); details: Compound concentration 10.0 uM
T1 sequence (whole entry): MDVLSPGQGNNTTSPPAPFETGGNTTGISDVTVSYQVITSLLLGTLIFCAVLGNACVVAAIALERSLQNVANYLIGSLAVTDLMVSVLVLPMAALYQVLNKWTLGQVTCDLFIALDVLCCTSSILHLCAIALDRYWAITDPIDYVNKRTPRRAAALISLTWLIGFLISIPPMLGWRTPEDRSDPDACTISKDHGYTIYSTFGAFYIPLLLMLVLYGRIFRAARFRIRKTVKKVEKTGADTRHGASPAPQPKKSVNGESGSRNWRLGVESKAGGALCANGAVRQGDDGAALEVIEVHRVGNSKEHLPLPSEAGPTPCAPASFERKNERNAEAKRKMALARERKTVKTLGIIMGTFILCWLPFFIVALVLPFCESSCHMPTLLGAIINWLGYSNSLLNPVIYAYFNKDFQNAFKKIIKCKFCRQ

[39] = target: Histamine H2 receptor (Homo sapiens) (UniProt P25021); details: Compound concentration 10.0 uM

Structure (SMILES) | residual activity [1] [%] | residual activity [2] [%] | residual activity [3] [%] | residual activity [4] [%] | residual activity [5] [%] | residual activity [6] [%] | residual activity [7] [%] | residual activity [8] [%] | residual activity [9] [%] | residual activity [10] [%] | residual activity [11] [%] | residual activity [12] [%] | residual activity [13] [%] | residual activity [14] [%] | residual activity [15] [%] | residual activity [16] [%] | residual activity [17] [%] | residual activity [18] [%] | residual activity [19] [%] | residual activity [20] [%] | further results
N#CC1(c2ccccn2)CCN(Cc2cc(C(=O)N3CCCC3)c(=O)n3ccccc23)CC1 | 100 | 89 | 85 | 79 | 90 | 77 | 79 | 78 | 100 | 53 | 81 | 100 | 89 | 86 | 80 | 85 | 100 | 88 | 100 | 81 | residual activity [21]: 78%; residual activity [22]: 87%; residual activity [23]: 82%; residual activity [24]: 100%; residual activity [25]: 100%; residual activity [26]: 100%; residual activity [27]: 82%; residual activity [28]: 87%; residual activity [29]: 91%; residual activity [30]: 86%; residual activity [31]: 90%; residual activity [32]: 100%; residual activity [33]: 88%; residual activity [34]: 34%; residual activity [35]: 100%; residual activity [36]: 78%; residual activity [37]: 84%; inhibition [38]: 26.7%; inhibition [39]: 3.1%
N#CC1(c2ccccn2)CCN(Cc2cc(C(=O)O)c(=O)n3ccccc23)CC1 [MSD-M1PAM] | 100 | 100 | 100 | 68 | 100 | 100 | 99 | 89 | 100 | 98 | 96 | 75 | 100 | 100 | 100 | 84 | 66 | 100 | 65 | 80 | residual activity [21]: 55%; residual activity [22]: 94%; residual activity [23]: 100%; residual activity [24]: 77%; residual activity [25]: 100%; residual activity [26]: 100%; residual activity [27]: 96%; residual activity [28]: 97%; residual activity [29]: 100%; residual activity [30]: 100%; residual activity [31]: 96%; residual activity [32]: 80%; residual activity [33]: 100%; residual activity [34]: 96%; residual activity [35]: 77%; residual activity [36]: 98%; residual activity [37]: 94%; inhibition [38]: 21%; inhibition [39]: 11.7%
